Drawing on publication PMC5061733, “SpyB, a Small Heme-Binding Protein, Affects the Composition of the Cell Wall in Streptococcus pyogenes” (Frontiers in Cellular and Infection Microbiology, 2016), this text covers Kd for two compounds.

Where two headings read alike, the source gives them in different places.

Usually Kd stands for the free concentration of one partner at which half of the binding sites on the other are occupied at equilibrium, for simple one-to-one binding.

For assay [1], the target named is T1, SpyB (synthetic SpyB peptide).
T1 construct: chemically synthesized SpyB peptide (GenScript); SpyB is 35 residues; no tag mentioned
The assay can be described thus: tryptophan fluorescence quenching. The following applies: 5 μM SpyB, 20 mM HEPES, 100 mM NaCl, 1 mM DTT, pH 7.5, 20°C. In kind it is binding, Streptococcus pyogenes. From the text:
tryptophan fluorescence quenching on SpyB (synthetic SpyB peptide)

Assay [2] has as its target MBP-SpyB. The following applies: read-out: Hemin, KD; 2.5 μM (Figure 5D; Methods: 5 μM) heme-free monomer, 20 mM HEPES, 100 mM NaCl, 1 mM DTT, pH 7.5, 20°C.

As for `C=CC1=C(C)C2=Cc3c(C=C)c(C)c4[n]3[Fe]([Cl])[n]3c(c(C)c(CCC(=O)O)c3=CC3=NC(=C4)C(C)=C3CCC(=O)O)=CC1=N2` [hemin], the Kd in assay [1] (read-out: Hemin, KD) is 2.6 µM; in assay [2] it was 12 µM.

For the compound `C=CC1=C(C)c2cc3[nH]c(cc4nc(cc5[nH]c(cc1n2)c(C)c5CCC(=O)O)C(CCC(=O)O)=C4C)c(C)c3C=C` [protoporphyrin IX], the Kd in assay [1] (read-out: Protoporphyrin IX, KD) is 4.9 µM.
